The record followed here is patent US7968577B2 (Bristol-Myers Squibb Company, priority 2006, dated 2011).

Test [1] addresses T1, human full-length glucocorticoid receptor (Homo sapiens, UniProt P04150).
T1 construct: recombinantly expressed human full-length glucocorticoid receptor; purchased PanVera Co., Madison, Wis; P2816
T1 sequence (P04150 1-777): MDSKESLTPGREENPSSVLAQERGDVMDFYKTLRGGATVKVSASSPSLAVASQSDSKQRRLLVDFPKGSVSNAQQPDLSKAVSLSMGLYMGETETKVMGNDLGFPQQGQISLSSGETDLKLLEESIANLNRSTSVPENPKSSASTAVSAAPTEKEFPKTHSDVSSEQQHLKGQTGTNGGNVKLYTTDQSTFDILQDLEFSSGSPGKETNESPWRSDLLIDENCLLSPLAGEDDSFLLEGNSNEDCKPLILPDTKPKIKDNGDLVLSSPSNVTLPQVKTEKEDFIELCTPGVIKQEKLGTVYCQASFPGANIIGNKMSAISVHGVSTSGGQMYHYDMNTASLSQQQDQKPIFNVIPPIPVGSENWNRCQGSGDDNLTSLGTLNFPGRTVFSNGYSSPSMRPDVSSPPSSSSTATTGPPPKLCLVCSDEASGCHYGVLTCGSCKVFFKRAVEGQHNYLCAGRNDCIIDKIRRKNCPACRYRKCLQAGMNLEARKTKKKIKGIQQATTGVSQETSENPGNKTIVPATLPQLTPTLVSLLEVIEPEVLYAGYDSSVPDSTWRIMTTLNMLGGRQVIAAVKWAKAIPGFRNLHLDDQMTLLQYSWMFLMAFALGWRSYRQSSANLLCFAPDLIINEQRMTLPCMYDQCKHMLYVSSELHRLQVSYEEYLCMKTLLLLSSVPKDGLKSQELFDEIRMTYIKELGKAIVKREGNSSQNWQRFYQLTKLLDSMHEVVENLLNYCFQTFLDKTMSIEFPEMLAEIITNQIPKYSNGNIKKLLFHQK
As to the kind of experiment: Glucocorticoid Receptor Binding Assay (II), fluorescence polarization competitor kit (Fluormone GS1). As to conditions: GR Binding Assay (II). In a few lines: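 Cell lysate with recombinant receptor incubated with 1 nM Fluormone GS1 tracer, with or without test compound, for one hour at room temperature. Binding read as displacement by fluorescence polarization.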
In general terms: Polarisation of emitted light reports the rotation of a fluorescent probe.

Test [2] has as its target T2, human glucocorticoid receptor (Homo sapiens, UniProt P04150).
T2 construct: purified human recombinant full-length glucocorticoid receptor; purchased Invitrogen Part #2893
T2 sequence (P04150 1-777): T1 sequence (P04150 1-777)
As to the kind of experiment: Glucocorticoid Receptor Binding Assay (I), fluorescence polarization competitor kit (Fluormone GS Red). As to conditions: GR Binding Assay (I). The procedure:
Glucocorticoid Receptor Binding Assay (I)^a
In order to assess the affinity of test compounds for the human glucocorticoid receptor, a commercially available kit was used (Glucocorticoid Receptor Competitor Assay Kit, Invitrogen Part #2893). Briefly, purified human recombinant full-length glucocorticoid receptor (2 nM) was mixed with fluorescently labeled glucocorticoid (1 nM Fluormone GS Red) in the presence or absence of test compound. After two hour incubation at room temperature in the dark, the fluorescence polarization (FP) of the samples was measured. […] Test compounds were analyzed in the concentration range from 8.5 E-05 μM to 5 μM.

As to `CC(C)(C(=O)Nc1nccs1)C(c1ccc(N2CCOCC2)cc1)c1cccc(F)c1` (single isomer, unassigned) [Example 254, 3-(3-fluorophenyl)-2,2-dimethyl-3-(4-(4-morpholinyl)phenyl)-N-1,3-thiazol-2-ylpropanamide], the Ki (in general, a measure of affinity in units of concentration, obtained from inhibition or displacement) is 25.8 nM in test [1] and 104 nM in test [2].

Consider `CC(C)(C(=O)Nc1nncs1)C(c1ccc(N2CCOCC2)cc1)c1cccc(F)c1` (single isomer, unassigned) [Example 256, 3-(3-fluorophenyl)-2,2-dimethyl-3-(4-(4-morpholinyl)phenyl)-N-1,3,4-thiadiazol-2-ylpropanamide], for which the Ki turned out to be 121 nM in test [1] and 125 nM in test [2].

For `Cc1cccc(C(c2ccc(N3CCOCC3)cc2)C(C)(C)C(=O)Nc2nncs2)c1` (centres unmarked) [Example 235, 2,2-dimethyl-3-(3-methylphenyl)-3-(4-(4-morpholinyl)phenyl)-N-1,3,4-thiadiazol-2-ylpropanamide], the figures for the Ki in test [1] and in test [2] were 13.6 nM and 5.19 nM, respectively.

Turning to `CC(C)(C(=O)Nc1nccs1)[C@H](c1ccccc1)c1ccc(O)cc1` [Example 326, (3R)-3-(4-hydroxyphenyl)-2,2-dimethyl-3-phenyl-N-1,3-thiazol-2-ylpropanamide], the inhibition constant Ki in test [1] is 12.9 nM; in test [2], 18.7 nM.

Compound `CC(C)CC(c1ccc(-c2ccc(-c3ccccc3)cc2)cc1)C(C)(C)C(=O)Nc1nncs1` (centres unmarked) [Example 433, 2,2,5-trimethyl-3-(1,1′:4′,1″-terphenyl-4-yl)-N-1,3,4-thiadiazol-2-ylhexanamide] yielded a Ki in test [2] of 12.4 nM.

`CC(C)CC(c1ccc(-c2cccc(Cl)c2)cc1)C(C)(C)C(=O)Nc1nncs1` (centres unmarked) [Example 434, 3-(3′-chloro-4-biphenylyl)-2,2,5-trimethyl-N-1,3,4-thiadiazol-2-ylhexanamide] registered a Ki in test [2] of 19.4 nM.

In test [2], `COc1ccccc1-c1ccc(C(CC(C)C)C(C)(C)C(=O)Nc2nncs2)cc1` (centres unmarked) [Example 435, 3-(2′-methoxy-4-biphenylyl)-2,2,5-trimethyl-N-1,3,4-thiadiazol-2-ylhexanamide] gave a Ki of 10.7 nM.

`CC(C)CC(c1ccc(-c2ccc(O)cc2)cc1)C(C)(C)C(=O)Nc1nncs1` (centres unmarked) [Example 436, 3-(4′-hydroxy-4-biphenylyl)-2,2,5-trimethyl-N-1,3,4-thiadiazol-2-ylhexanamide] displayed an inhibition constant Ki in test [2] of 105 nM.

Consider `CC(C)CC(c1ccc(-c2ccc(OC(F)(F)F)cc2)cc1)C(C)(C)C(=O)Nc1nncs1` (centres unmarked) [Example 437, 2,2,5-trimethyl-N-1,3,4-thiadiazol-2-yl-3-(4′-(trifluoromethoxy)-4-biphenylyl)hexanamide], for which, in test [2], the inhibitory constant (Ki) is 5.33 nM.

Compound `CC(=O)c1ccc(-c2ccc(C(CC(C)C)C(C)(C)C(=O)Nc3nncs3)cc2)cc1` (centres unmarked) [Example 438, 3-(4′-acetyl-4-biphenylyl)-2,2,5-trimethyl-N-1,3,4-thiadiazol-2-ylhexanamide] returned an inhibitory constant (Ki) in test [2] of 12 nM.

Compound `CC(=O)c1cccc(-c2ccc(C(CC(C)C)C(C)(C)C(=O)Nc3nncs3)cc2)c1` (centres unmarked) [Example 439, 3-(3′-acetyl-4-biphenylyl)-2,2,5-trimethyl-N-1,3,4-thiadiazol-2-ylhexanamide] gave a Ki in test [2] of 20.3 nM.

Compound `CC(=O)Nc1ccc(-c2ccc(C(CC(C)C)C(C)(C)C(=O)Nc3nncs3)cc2)cc1` (centres unmarked) [Example 440, 3-(4′-acetamido-4-biphenylyl)-2,2,5-trimethyl-N-1,3,4-thiadiazol-2-ylhexanamide] showed an inhibition constant (Ki) in test [2] of 21.4 nM.

Turning to `CC(C)CC(c1ccc(-c2ccc3c(c2)CCO3)cc1)C(C)(C)C(=O)Nc1nncs1` (centres unmarked) [Example 441, 3-(4-(2,3-dihydro-1-benzofuran-5-yl)phenyl)-2,2,5-trimethyl-N-1,3,4-thiadiazol-2-ylhexanamide], affinity in test [2] was put at a Ki of 104 nM.
